Measurements from US20230133672A1, “FUSION POLYPEPTIDE COMPRISING GDF15 AND POLYPEPTIDE REGION CAPABLE OF O-GLYCOSYLATION” (LG CHEM, LTD., priority 2019, published 2023).

What was measured:
Type in all cases: in vivo, Mouse, C57BL/6J-DIO
[1] = Repeated administration: feed intake in DIO mice; parameters: unit not given here
Method: (§1) In addition, after administering the test substances into mice, the daily feed intake was measured, and the feeding amount was measured using an electronic scale for each breeding box, and the remaining amount was measured to calculate the daily feed intake. In case of an individual that gnawed heavily on heed, it was excluded from the measurement.
(§2) All the experimental results obtained in the present example were expressed as mean±standard error and tested using Prism5 (version 5.01). One-way analysis of variance (ANOVA) was performed on all data, and when significance was observed, Dunnett's test was performed to find out the test groups with a significant difference from the control group (significance level: two-sided 5% and 1%, 0.1%).
Except for the administration dose, animal number and administration cycle, most of the test processes were the same as in Example 2.1.1 above.
The test substances were administered twice a week (Days 0, 4, 7, 11, 14, 18, 21, 25) for a total of 8 times. For comparison, the control group in which the control substance Semaglutide was administered every day was prepared, and the comparison group in which Semaglutide was administered every day was administered once a day daily, and all the administration was progressed from 9 AM.

[2] = Single administration: body weight change in DIO mice; settings: single s.c. injection, mean
Method: (§3) The pharmacological effect of the fusion polypeptides produced and purified in Example 1 above was tested in mice (C57BL/6J, 6-week-old, male, 100 mice; Raonbio).
(§4) In the present example, DI0 mouse model (Mouse, C57BL/6J-DIO, male, 100 mice, 14-week-old (obesity feed feeding for 8 weeks)) in which obesity was induced by feeding a high-fat diet into the C57BL/6J mice for 8 weeks was used.
(§5) The administration of the test substances HT-ID1-GDF15, HT-ID2-GDF15, and HT-ID3-GDF15 and the control substance Semaglutide (Bachem) was conducted from the next day after group separation, and the administration time was performed at 9 AM every day. Subcutaneous administration was conducted for all the control substance and test substances. For the administration route of the control substance and test substances, subcutaneous administration was selected depending on the clinically scheduled administration route.
(§6) For all the control substance and test substances, the amount of the administration solution was set to 5 mL/kg and the administration liquid by individual was calculated on the basis of the recently measured body weight and it was administered by subcutaneous injection once on the start day of the test using a disposable syringe (1 mL). The test substances were administered only once. For comparison, the control group in which the control substance Semaglutide was administered was prepared, and the comparison group in which Semaglutide was administered was administered once a day, and all the administration was progressed from 9 AM.
As for the observation, measurement and test schedule for the test groups, the administration start date was set to Day 0, and 7 days from the administration start date were set to one week of administration.
The body weight of each mouse was measured on the day of the start of administration of the test substances (before administration), and thereafter, the body weight was measured every day (measured up to 9 days), and the amount of the administration solution of the test substances was determined on the basis of the most recently measured body weight.
as §2

[3] = Single administration: feed intake in DIO mice; parameters: unit not given here
Method: as §3, §4, §5, §6, §1, §2

For “HT-ID3-GDF15: Fusion polypeptide: His-Tag, TEV cleavage site, three IgD hinges, GS linker, GDF15 (SEQ ID NO: 3)”, the “Feed intake, Mean” value ([1]; Day 1, 3 nmol/kg twice a week) was 2.9, the “Feed intake, Mean” value ([1]; Day 1, 10 nmol/kg twice a week) was 2.9 and the “Feed intake, Mean” value ([1]; Day 1, 30 nmol/kg twice a week) was 2.5. The “Feed intake, Mean” value ([1]; Day 2, 3 nmol/kg twice a week) was 1.5, the “Feed intake, Mean” value ([1]; Day 2, 10 nmol/kg twice a week) was 1.7 and the “Feed intake, Mean” value ([1]; Day 2, 30 nmol/kg twice a week) was 1.6. For the same substance, the “Feed intake, Mean” value ([1]; Day 3, 3 nmol/kg twice a week) was 1.9, the “Feed intake, Mean” value ([1]; Day 3, 10 nmol/kg twice a week) was 2.3 and the “Feed intake, Mean” value ([1]; Day 3, 30 nmol/kg twice a week) was 2.1. For the same substance, the “Feed intake, Mean” value ([1]; Day 4, 3 nmol/kg twice a week) was 1.9, the “Feed intake, Mean” value ([1]; Day 4, 10 nmol/kg twice a week) was 2.2 and the “Feed intake, Mean” value ([1]; Day 4, 30 nmol/kg twice a week) was 2.2. For the same substance, the “Feed intake, Mean” value ([1]; Day 5, 3 nmol/kg twice a week) was 2.0, the “Feed intake, Mean” value ([1]; Day 5, 10 nmol/kg twice a week) was 2.1 and the “Feed intake, Mean” value ([1]; Day 5, 30 nmol/kg twice a week) was 2.3. The “Feed intake, Mean” value ([1]; Day 6, 3 nmol/kg twice a week) was 1.6, the “Feed intake, Mean” value ([1]; Day 6, 10 nmol/kg twice a week) was 1.9 and the “Feed intake, Mean” value ([1]; Day 6, 30 nmol/kg twice a week) was 1.8. For the same substance, the “Feed intake, Mean” value ([1]; Day 7, 3 nmol/kg twice a week) was 2.1, the “Feed intake, Mean” value ([1]; Day 7, 10 nmol/kg twice a week) was 2.2 and the “Feed intake, Mean” value ([1]; Day 7, 30 nmol/kg twice a week) was 2.2. For the same substance, the “Feed intake, Mean” value ([1]; Day 8, 3 nmol/kg twice a week) was 2.1, the “Feed intake, Mean” value ([1]; Day 8, 10 nmol/kg twice a week) was 2.1 and the “Feed intake, Mean” value ([1]; Day 8, 30 nmol/kg twice a week) was 2.1. For the same substance, the “Feed intake, Mean” value ([1]; Day 9, 3 nmol/kg twice a week) was 1.9, the “Feed intake, Mean” value ([1]; Day 9, 10 nmol/kg twice a week) was 2.1 and the “Feed intake, Mean” value ([1]; Day 9, 30 nmol/kg twice a week) was 2.0. The “Feed intake, Mean” value ([1]; Day 10, 3 nmol/kg twice a week) was 2.4, the “Feed intake, Mean” value ([1]; Day 10, 10 nmol/kg twice a week) was 2.4 and the “Feed intake, Mean” value ([1]; Day 10, 30 nmol/kg twice a week) was 2.5. For the same substance, the “Feed intake, Mean” value ([1]; Day 11, 3 nmol/kg twice a week) was 2.5, the “Feed intake, Mean” value ([1]; Day 11, 10 nmol/kg twice a week) was 3.0 and the “Feed intake, Mean” value ([1]; Day 11, 30 nmol/kg twice a week) was 2.9. The “Feed intake, Mean” value ([1]; Day 12, 3 nmol/kg twice a week) was 3.9, the “Feed intake, Mean” value ([1]; Day 12, 10 nmol/kg twice a week) was 4.1 and the “Feed intake, Mean” value ([1]; Day 12, 30 nmol/kg twice a week) was 4.0. For the same substance, the “Feed intake, Mean” value ([1]; Day 13, 3 nmol/kg twice a week) was 2.9, the “Feed intake, Mean” value ([1]; Day 13, 10 nmol/kg twice a week) was 2.5 and the “Feed intake, Mean” value ([1]; Day 13, 30 nmol/kg twice a week) was 2.1. The “Feed intake, Mean” value ([1]; Day 14, 3 nmol/kg twice a week) was 3.2, the “Feed intake, Mean” value ([1]; Day 14, 10 nmol/kg twice a week) was 3.3 and the “Feed intake, Mean” value ([1]; Day 14, 30 nmol/kg twice a week) was 3.0. The “Feed intake, Mean” value ([1]; Day 15, 3 nmol/kg twice a week) was 3.1, the “Feed intake, Mean” value ([1]; Day 15, 10 nmol/kg twice a week) was 3.2 and the “Feed intake, Mean” value ([1]; Day 15, 30 nmol/kg twice a week) was 3.1. The “Feed intake, Mean” value ([1]; Day 16, 3 nmol/kg twice a week) was 2.7, the “Feed intake, Mean” value ([1]; Day 16, 10 nmol/kg twice a week) was 2.2 and the “Feed intake, Mean” value ([1]; Day 16, 30 nmol/kg twice a week) was 1.9. The “Feed intake, Mean” value ([1]; Day 17, 3 nmol/kg twice a week) was 3.0, the “Feed intake, Mean” value ([1]; Day 17, 10 nmol/kg twice a week) was 3.3 and the “Feed intake, Mean” value ([1]; Day 17, 30 nmol/kg twice a week) was 3.0. For the same substance, the “Feed intake, Mean” value ([1]; Day 18, 3 nmol/kg twice a week) was 3.1, the “Feed intake, Mean” value ([1]; Day 18, 10 nmol/kg twice a week) was 3.3 and the “Feed intake, Mean” value ([1]; Day 18, 30 nmol/kg twice a week) was 3.2. For the same substance, the “Feed intake, Mean” value ([1]; Day 19, 3 nmol/kg twice a week) was 3.3, the “Feed intake, Mean” value ([1]; Day 19, 10 nmol/kg twice a week) was 3.4 and the “Feed intake, Mean” value ([1]; Day 19, 30 nmol/kg twice a week) was 3.3. For the same substance, the “Feed intake, Mean” value ([1]; Day 20, 3 nmol/kg twice a week) was 2.7, the “Feed intake, Mean” value ([1]; Day 20, 10 nmol/kg twice a week) was 2.4 and the “Feed intake, Mean” value ([1]; Day 20, 30 nmol/kg twice a week) was 1.9. For the same substance, the “Feed intake, Mean” value ([1]; Day 21, 3 nmol/kg twice a week) was 3.0, the “Feed intake, Mean” value ([1]; Day 21, 10 nmol/kg twice a week) was 3.1 and the “Feed intake, Mean” value ([1]; Day 21, 30 nmol/kg twice a week) was 3.1. For the same substance, the “Feed intake, Mean” value ([1]; Day 22, 3 nmol/kg twice a week) was 3.1, the “Feed intake, Mean” value ([1]; Day 22, 10 nmol/kg twice a week) was 3.2 and the “Feed intake, Mean” value ([1]; Day 22, 30 nmol/kg twice a week) was 3.4. For the same substance, the “Feed intake, Mean” value ([1]; Day 23, 3 nmol/kg twice a week) was 2.9, the “Feed intake, Mean” value ([1]; Day 23, 10 nmol/kg twice a week) was 2.7 and the “Feed intake, Mean” value ([1]; Day 23, 30 nmol/kg twice a week) was 2.3. The “Feed intake, Mean” value ([1]; Day 24, 3 nmol/kg twice a week) was 3.1, the “Feed intake, Mean” value ([1]; Day 24, 10 nmol/kg twice a week) was 3.1 and the “Feed intake, Mean” value ([1]; Day 24, 30 nmol/kg twice a week) was 3.3. For the same substance, the “Feed intake, Mean” value ([1]; Day 25, 3 nmol/kg twice a week) was 2.9, the “Feed intake, Mean” value ([1]; Day 25, 10 nmol/kg twice a week) was 3.3 and the “Feed intake, Mean” value ([1]; Day 25, 30 nmol/kg twice a week) was 3.2. For the same substance, the “Feed intake, Mean” value ([1]; Day 26, 3 nmol/kg twice a week) was 3.0, the “Feed intake, Mean” value ([1]; Day 26, 10 nmol/kg twice a week) was 3.3 and the “Feed intake, Mean” value ([1]; Day 26, 30 nmol/kg twice a week) was 3.2. For the same substance, the “Feed intake, Mean” value ([1]; Day 27, 3 nmol/kg twice a week) was 2.8, the “Feed intake, Mean” value ([1]; Day 27, 10 nmol/kg twice a week) was 2.7 and the “Feed intake, Mean” value ([1]; Day 27, 30 nmol/kg twice a week) was 2.2. For the same substance, the “Feed intake, Mean” value ([1]; Day 28, 3 nmol/kg twice a week) was 2.7, the “Feed intake, Mean” value ([1]; Day 28, 10 nmol/kg twice a week) was 3.2 and the “Feed intake, Mean” value ([1]; Day 28, 30 nmol/kg twice a week) was 3.2. The “Body Weight (Group, % of initial)” value ([2]; Day 0, 10 nmol/kg) was 100 % of initial, the “Body Weight (Group, % of initial)” value ([2]; Day 1, 10 nmol/kg) was 98 % of initial and the “Body Weight (Group, % of initial)” value ([2]; Day 2, 10 nmol/kg) was 97 % of initial. For the same substance, the “Body Weight (Group, % of initial)” value ([2]; Day 3, 10 nmol/kg) was 96 % of initial, the “Body Weight (Group, % of initial)” value ([2]; Day 4, 10 nmol/kg) was 95 % of initial and the “Body Weight (Group, % of initial)” value ([2]; Day 5, 10 nmol/kg) was 94 % of initial. The “Body Weight (Group, % of initial)” value ([2]; Day 6, 10 nmol/kg) was 95 % of initial, the “Body Weight (Group, % of initial)” value ([2]; Day 7, 10 nmol/kg) was 95 % of initial and the “Body Weight (Group, % of initial)” value ([2]; Day 8, 10 nmol/kg) was 95 % of initial. The “Body Weight (Group, % of initial)” value ([2]; Day 9, 10 nmol/kg) was 96 % of initial, the “Feed intake, Mean” value ([3]; Day 0, 10 nmol/kg Single Inj.) was 3.2 and the “Feed intake, Mean” value ([3]; Day 1, 10 nmol/kg Single Inj.) was 2.0. The “Feed intake, Mean” value ([3]; Day 2, 10 nmol/kg Single Inj.) was 2.5, the “Feed intake, Mean” value ([3]; Day 3, 10 nmol/kg Single Inj.) was 2.3 and the “Feed intake, Mean” value ([3]; Day 4, 10 nmol/kg Single Inj.) was 2.3. The “Feed intake, Mean” value ([3]; Day 5, 10 nmol/kg Single Inj.) was 2.7, the “Feed intake, Mean” value ([3]; Day 6, 10 nmol/kg Single Inj.) was 2.8 and the “Feed intake, Mean” value ([3]; Day 7, 10 nmol/kg Single Inj.) was 3.3. For the same substance, the “Feed intake, Mean” value ([3]; Day 8, 10 nmol/kg Single Inj.) was 3.3 and the “Feed intake, Mean” value ([3]; Day 9, 10 nmol/kg Single Inj.) was 3.6.
